Assay results taken from patent US11878075B2, “Sustained release formulations of dysoxylum binefacterum” (COUNCIL OF SCIENTIFIC AND INDUSTRIAL RESEARCH, priority 2018, dated 2024).

Tests used:
[1] = tested on: TNF-alpha production in THP-1 cells; assay: In-vitro cytokine inhibition in LPS-stimulated THP-1 cells (TNF-α ELISA); format: cell-based, human; conditions: THP-1 cells, 1.56, 3.12, and 6.25 μg/mL
Protocol: For the in vitro analysis of pro-inflammatory cytokine (TNF-α), human leukemia THP-1 cells were seeded in a 24-well plate at a density of 4×10^5 cells/ml of RPMI medium per well. THP-1 cells were then treated with PMA (20 ng/ml) for differentiation into macrophages for 18 h followed by a rest period of 48 h. Cells were further co-treated with test samples and 1 μg/ml of lipopolysaccharide (LPS) in a serum-free medium. Culture supernatant was harvested after 24 h for analysis of TNF-α by using OptEIA ELISA Kits from BD Biosciences. Total protein content for all the samples was calculated by using Bradford reagent from Bio-Rad Laboratories. All samples were normalized by dividing cytokine concentration with total quantity of protein. Betamethasone was used as positive control in this study.

[2] = in vivo; conditions: male, SD, rat
Protocol: The pharmacokinetic study was performed in male SD rats. First the pharmacokinetic study of “rohitukine” was performed by both intravenous as well as per oral (PO) routes in order to understand the oral exposure and oral bioavailability of rohitukine. Rohitukine was administered at 5 mg/kg by IV route and at 50 mg/kg by oral route. For comparative oral pharmacokinetic study of plain extract (A002-AEF) and SR formulation “SR-A002-AEF” formulation (filled in 9e1 capsules), the dose equivalent to 6.77 mg/kg dose of rohitukine was administered in SD rats in both these groups. Blood samples were collected (n=3/time point) at 0.083 (IV only), 0.25, 0.5, 1, 2, 4, 8 and 24 h, post-dose. At each time point about 200 μL of blood was collected by jugular vein into a labeled microfuge tube containing 200 mM K2EDTA solution (20 μL per mL of blood) and equivalent volume of heparinized saline was replaced following sample collection. The blood samples were processed to obtain the plasma samples within 30 min of scheduled sampling time. All plasma samples were stored below −60° C. until bioanalysis. The plasma samples were analyzed for rohitukine content using a fit-for purpose LC-MS/MS method with a lower limit of quantification (LLOQ) of 9.95 ng/mL. The pharmacokinetic parameters of rohitukine were calculated using the non-compartmental analysis tool of validated Phoenix® WinNonlin® software (version 6.3).

[3] = tested on: IL-6; assay: Collagen induced arthritis model, serum IL-6; format: in vivo, DBA/1J mice; conditions: oral administration in arthritic mice, day 34 to day 48
Protocol: (§1) Six weeks old DBA/1J mice (procured from Jackson Laboratories, USA) were used in this study. On the day of the immunization (day 1), required amount of Chicken collagen II (CII), 2 mg/ml (Chondrex Inc, USA) stock solution was thawed at 4° C. into a small (20 ml) glass bottle. Equal volume of CII solution was added to the complete Freund's adjuvant (CFA), 1 mg/ml, (Sigma aldrich, USA) in 1:1 ratio and homogenized at 4° C. to produce a homogenous, stiff, white creamy emulsion for immunization. Mice were weighed and anesthetized with isoflurane. 150 μl of CII/CFA (1:1) emulsion was injected intradermally at two different sites into the mice lower back (previously shaven) on day 1. Mice were given the booster on day-21 in a similar manner as day 1 except that CII was emulsified in incomplete Freund's adjuvant. Mice were given booster of LPS from E. coli (50 μg/mouse; Sigma Aldrich, USA) on day 28. Dosing of the test samples in DBA/1J mouse CIA model was initiated after development of clinical symptoms. Animals were randomized into different treatment groups based on clinical scores on day 33. Treatment continued from day 34 to day 48. Serum IL-6, TNF-α estimation was done using ELISA kit from R & D Systems, USA. All values are expressed as Mean±SEM. * p<0.05 as compared to vehicle treatment, one way ANOVA followed by Dunnett's multiple comparison test.

[4] = tested on: TNF-α; assay: LPS induced septic shock model, serum TNF-α ELISA; format: in vivo, BALB/C mice; conditions: 20 mg/kg (PO)
Protocol: The effect of rohitukine, hydroalcoholic extract (A002-A) and rohitukine-enriched fraction (A002-AEF) on TNF-α secretion was studied in LPS induced septic shock model in BALB/C mice. BALB/C female mice (20-25 g) were randomly divided into 6 groups (n=4 per group). Animals were treated according to the following pattern: group 1 (vehicle), group 2 (LPS, 20 mg/kg), group 3 (Rohitukine, 20 mg/kg), group 4 (A002-A, 200 mg/kg), group 5 (A002-AEF, 200 mg/kg), group 6 (dexamethasone, 10 mg/kg). The hydroalcholic extract (A002-A) and its enriched fraction A002-AEF was dissolved in water and dexamethasone was dissolved in PBS. PBS/water was used as a vehicle control. Compounds and vehicle were administered perorally for 1 h prior to treatment with LPS. LPS was injected through intraperitoneal route for 5 h. Blood was collected and serum was extracted for performing ELISA analysis of TNF-α cytokine. The ELISA was performed according to manufacturer's instructions (BD Bioscience). The absorbance was measured at 450 nm and each estimated cytokine value was normalized with total serum protein.

[5] = tested on: TNF-α; assay: Collagen induced arthritis model, serum TNF-α; format: in vivo, DBA/1J mice
Protocol: as §1

[6] = pH dependent stability of rohitukine; format: physicochemical; conditions: pH 1.2 buffer, pH 4.0 buffer, phosphate buffer pH 6.8, PBS pH 7.4, SGF (pH 1.2), SIF (pH 6.8) and plasma up to 24 hrs
Protocol: The stability of rohitukine was performed in pH 1.2 buffer, pH 4.0 buffer, phosphate buffer pH 6.8, phosphate buffered saline pH 7.4, SGF (pH 1.2), SIF (pH 6.8) and plasma up to 24 hrs. The % of rohitukine hydrolyzed was determined by HPLC analysis. The HPLC analysis was carried out using the method as described in example 1.

[7] = rats, oral and intravenous administration; cited from earlier work

Row | bioavailability [2] | AUC(0-t) ([2]; iv, 5 mg/kg) | clearance ([2]; iv, 5 mg/kg) | clearance relative to normal hepatic blood flow (55 mL/min/kg) ([2]; iv, 5 mg/kg) | half-life ([2]; iv, 5 mg/kg) | volume of distribution relative to normal total body water (0.7 L/kg) ([2]; iv, 5 mg/kg) | AUC(0-t) ([2]; po, 50 mg/kg) | Cmax ([2]; po, 50 mg/kg) | half-life ([2]; po, 50 mg/kg) | median time to reach the maximum plasma concentration ([2]; po, 50 mg/kg) | stability of rohitukine (% hydrolyzed by HPLC) [6] | SMILES | inhibition of LPS-stimulated TNF-alpha levels [1] | serum IL-6 cytokine levels [3] | serum TNF-alpha levels [4] | serum TNF-alpha ([5]; 5-15 mg/kg (PO) doses) | serum TNF-alpha cytokine ([5]; 5-30 mg/kg doses) | biological half-life [7]
1 | > 100% | 1130 ng·h/mL | 72.7 mL/min/kg | ~1.32 fold | 22.9 min | ~2.41 fold | 26400 ng·h/mL | 14900 ng/mL | 63.6 min | 0.25 h | stable at all the conditions tested | Cc1cc(=O)c2c(O)cc(O)c([C@H]3CCN(C)C[C@H]3O)c2o1 [rohitukine] | significant inhibition of TNF-alpha | decreased levels of serum IL-6 cytokine | not able to significantly inhibit the serum TNF-alpha levels | could not inhibit serum TNF-alpha | no significant inhibition of TNF-alpha cytokine | 1-2 h
2 |  |  |  |  |  |  |  |  |  |  |  | Cc1cc(=O)c2c(O[C@@H]3OC(CO)[C@@H](O)[C@H](O)C3O)cc(O)cc2o1 (stereo partly drawn) [schumaniofioside A] | significant inhibition of TNF-alpha |  |  |  |  | 
